Results as given in patent US12371454B2, “Cyclic peptide compound having Kras inhibitory action” (priority 2019, dated 2025).
Starred links: 1 amine or outer side, 2 acyl side, 3 side chain; linkers in the order of their positions; H or OH if unused. Positions of bridges follow the written chain, without caps; N, C: chain ends. Non-standard residues stand in square brackets, D forms with d. Residues, ends and D or L forms follow the SMILES beside them. *: point of attachment. hPhe(3,5-F2-4-CF3) = N[C@@H](CCc1cc(F)c(C(F)(F)F)c(F)c1)C(=O)O; hPhe(3-Cl-4-CF3) = N[C@@H](CCc1ccc(C(F)(F)F)c(Cl)c1)C(=O)O; X12 = CN([C@@H](Cc1ccc(C(F)(F)F)nc1)C(=O)[*:2])[*:1]; NMePhe(4-CF3) = CN[C@@H](Cc1ccc(C(F)(F)F)cc1)C(=O)O; NMeAla(4-thiazolyl) = CN[C@@H](Cc1cscn1)C(=O)O; NMePhe(4-Cl) = CN[C@@H](Cc1ccc(Cl)cc1)C(=O)O; NMePhe(3-Me) = CN[C@@H](Cc1cccc(C)c1)C(=O)O; NMePhe(4-Me) = CN[C@@H](Cc1ccc(C)cc1)C(=O)O; X31 = O=C([C@H](Cc1ccc(Cl)s1)N[*:1])[*:2]; NMeGly(cPent) = CN[C@H](C(=O)O)C1CCCC1; NMeCha = CN[C@@H](CC1CCCCC1)C(=O)O; NMehLeu = CN[C@@H](CCC(C)C)C(=O)O; NMeChg = CN[C@H](C(=O)O)C1CCCCC1; NMeF = CN[C@@H](Cc1ccccc1)C(=O)O; NMeI = CC[C@H](C)[C@H](NC)C(=O)O; dNMeF = CN[C@H](Cc1ccccc1)C(=O)O; NMeβAla = CN(CCC(=O)[*:2])[*:1]; NMeD = CN[C@@H](CC(=O)O)C(=O)O; NMeL = CN[C@@H](CC(C)C)C(=O)O; dNMeAbu = CC[C@@H](NC)C(=O)O; NMeV = CN[C@H](C(=O)O)C(C)C; d(β3hA) = C[C@@H](N)CC(=O)O; NMeS = CN[C@@H](CO)C(=O)O; dPip = O=C(O)[C@H]1CCCCN1; NMeA = CN[C@@H](C)C(=O)O; NMeAib = CNC(C)(C)C(=O)O; Nle = CCCC[C@H](N)C(=O)O; Piperidide = C1CCN(*)CC1; dNMeA = CN[C@H](C)C(=O)O; Ac5c = NC1(C(=O)O)CCCC1; Aze = O=C(O)[C@@H]1CCN1; X1 = FC1(F)CN(*)CC1(F)F; Sar = CNCC(=O)O

Biological target: T1, Kras and SOS1 (biotin-tagged human Kras loaded with GDP, His-tagged human SOS1) (Homo sapiens, UniProt P01116, G12D)
T1 construct: made in house; host or cells: E. coli (stated for Kras only)
T1 sequence (P01116 1-188 isoform P01116-2 G12D): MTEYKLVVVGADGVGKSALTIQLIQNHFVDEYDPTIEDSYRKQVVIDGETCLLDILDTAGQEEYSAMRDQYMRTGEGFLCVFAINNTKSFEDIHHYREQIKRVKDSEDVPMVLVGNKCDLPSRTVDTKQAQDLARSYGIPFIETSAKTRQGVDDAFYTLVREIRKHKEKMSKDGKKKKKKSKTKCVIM
Experiment: Protein-protein interaction inhibition between Kras and SOS1 (KrasGl2D-SOS PPI) using AlphaScreen
Type: binding
Conditions: AlphaScreen; biotin-tagged human Kras loaded with GDP, His-tagged human SOS1; read-out: KRAS G12D-SOS PPI IC50
Summary of the method: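 Donor beads (nickel) hold His-SOS1; acceptor beads (streptavidin) hold biotin-Kras bound to GDP. Signal measured at 520-620 nm following 680 nm excitation.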

SMILES	IC50 [nM]
CC[C@H](C)[C@@H]1NC(=O)CCN(C)C(=O)[C@@H](Cc2ccccc2)N(C)C(=O)[C@H](C2CCCC2)N(C)C(=O)C2(CCCC2)NC(=O)[C@@H]2CCCN2C(=O)[C@H](CCc2ccc(C(F)(F)F)c(Cl)c2)NC(=O)CN(C)C(=O)[C@H](CC2CCCCC2)N(C)C(=O)CN(C)C(=O)CN(C)C1=O [Compound 753] (cyclo([Ac5c][NMeGly(cPent)][dNMeF][NMeβAla]I[Sar][Sar][NMeCha][Sar][hPhe(3-Cl-4-CF3)]P))	35
CC[C@H](C)[C@@H]1NC(=O)[C@H](C)N(C)C(=O)C[C@@H](C)NC(=O)[C@H](C(C)C)N(C)C(=O)C2(CCCC2)NC(=O)[C@@H]2CCCN2C(=O)[C@H](CCc2ccc(C(F)(F)F)c(Cl)c2)NC(=O)[C@H]2CCCCN2C(=O)[C@H](CC2CCCCC2)N(C)C(=O)[C@@H]2CCN2C(=O)CN(C)C1=O [Compound 267] (cyclo([Ac5c][NMeV][d(β3hA)][NMeA]I[Sar][Aze][NMeCha][dPip][hPhe(3-Cl-4-CF3)]P))	130
CC[C@H](C)[C@@H]1NC(=O)[C@H](CC(C)C)N(C)C(=O)C[C@@H](C(=O)N2CCCCC2)N(C)C(=O)[C@H]([C@@H](C)CC)N(C)C(=O)C2(CCCC2)NC(=O)[C@@H]2CCCN2C(=O)[C@H](CCc2ccc(C(F)(F)F)c(Cl)c2)NC(=O)CN(C)C(=O)[C@H](Cc2ccc(C(F)(F)F)cc2)N(C)C(=O)[C@@H]2CCN2C(=O)[C@H](C)N(C)C1=O [Compound 630] ([NMeL]I[NMeA][Aze][NMePhe(4-CF3)][Sar][hPhe(3-Cl-4-CF3)]P[Ac5c][NMeI][NMeD]-Piperidide; lactam N-11)	1.7
CC[C@H](C)[C@@H]1NC(=O)[C@H](CC(C)C)N(C)C(=O)C[C@@H](C(=O)N2CC(F)(F)C(F)(F)C2)NC(=O)[C@H]([C@@H](C)CC)N(C)C(=O)C2(CCCC2)NC(=O)[C@@H]2CCCN2C(=O)[C@H](CCc2ccc(C(F)(F)F)c(Cl)c2)NC(=O)CN(C)C(=O)[C@H](CC2CCCCC2)N(C)C(=O)CN(C)C(=O)CN(C)C1=O [Compound 1168] ([NMeL]I[Sar][Sar][NMeCha][Sar][hPhe(3-Cl-4-CF3)]P[Ac5c][NMeI]D-X1; lactam N-11)	100
CC[C@H](C)[C@@H]1NC(=O)[C@H](CC(C)C)N(C)C(=O)C[C@@H](C(=O)N2CCCCC2)N(C)C(=O)[C@H](C2CCCCC2)N(C)C(=O)C2(CCCC2)NC(=O)[C@@H]2CCCN2C(=O)[C@H](CCc2ccc(C(F)(F)F)c(Cl)c2)NC(=O)CN(C)C(=O)[C@H](CO)N(C)C(=O)CN(C)C(=O)CN(C)C1=O [Compound 1687] ([NMeL]I[Sar][Sar][NMeS][Sar][hPhe(3-Cl-4-CF3)]P[Ac5c][NMeChg][NMeD]-Piperidide; lactam N-11)	4.2
CC[C@H](C)[C@@H]1NC(=O)[C@H](C)N(C)C(=O)C[C@@H](C)NC(=O)[C@H](C(C)C)N(C)C(=O)C2(CCCC2)NC(=O)[C@@H]2CCCN2C(=O)[C@H](CCc2ccc(C(F)(F)F)c(Cl)c2)NC(=O)[C@@H](C)N(C)C(=O)[C@H](CC2CCCCC2)N(C)C(=O)[C@@H]2CCCN2C(=O)CN(C)C1=O [Compound 516] (cyclo([Ac5c][NMeV][d(β3hA)][NMeA]I[Sar]P[NMeCha][dNMeA][hPhe(3-Cl-4-CF3)]P))	62
CC[C@@H]1C(=O)NC2(CCCC2)C(=O)N(C)[C@@H](C2CCCC2)C(=O)N(C)[C@H](C(=O)N2CCCCC2)CC(=O)N(C)[C@@H](CC(C)C)C(=O)N[C@@H]([C@@H](C)CC)C(=O)N(C)[C@@H](C)C(=O)N2CC[C@H]2C(=O)N(C)[C@@H](CC2CCCCC2)C(=O)N(C)CC(=O)N[C@@H](CCc2ccc(C(F)(F)F)c(Cl)c2)C(=O)N1C [Compound 1441] ([NMeL]I[NMeA][Aze][NMeCha][Sar][hPhe(3-Cl-4-CF3)][dNMeAbu][Ac5c][NMeGly(cPent)][NMeD]-Piperidide; lactam N-11)	6.4
CC[C@H](C)[C@@H]1NC(=O)[C@H](CC(C)C)N(C)C(=O)C[C@@H](C(=O)N(C)C)N(C)C(=O)[C@H](C2CCCC2)N(C)C(=O)C2(CCCC2)NC(=O)[C@@H]2CCCN2C(=O)[C@H](CCc2ccc(C(F)(F)F)c(Cl)c2)NC(=O)CN(C)C(=O)[C@H](Cc2ccc(C)cc2)N(C)C(=O)[C@@H]2CCN2C(=O)[C@H](C)N(C)C1=O [Compound 1756] ([NMeL]I[NMeA][Aze][NMePhe(4-Me)][Sar][hPhe(3-Cl-4-CF3)]P[Ac5c][NMeGly(cPent)][NMeD]-NMe2; lactam N-11)	0.54
CC[C@H](C)[C@@H]1NC(=O)[C@H](CC(C)C)N(C)C(=O)C[C@@H](C(=O)N(C)C)N(C)C(=O)[C@H](C2CCCC2)N(C)C(=O)[C@H](C)NC(=O)[C@H](Cc2cscn2)N(C)C(=O)[C@H](CCc2ccc(C(F)(F)F)c(Cl)c2)NC(=O)CN(C)C(=O)[C@H](CC2CCCCC2)N(C)C(=O)[C@@H]2CCN2C(=O)[C@H](C)N(C)C1=O [Compound 805] ([NMeL]I[NMeA][Aze][NMeCha][Sar][hPhe(3-Cl-4-CF3)][NMeAla(4-thiazolyl)]A[NMeGly(cPent)][NMeD]-NMe2; lactam N-11)	38
CC[C@H](C)[C@@H]1NC(=O)[C@H](C)N(C)C(=O)C[C@@H](C(=O)N2CCCCC2)N(C)C(=O)[C@H](C(C)C)N(C)C(=O)C2(CCCC2)NC(=O)[C@@H]2CCCN2C(=O)[C@H](CCc2ccc(C(F)(F)F)c(Cl)c2)NC(=O)CN(C)C(=O)[C@H](CC2CCCCC2)N(C)C(=O)[C@@H]2CCN2C(=O)[C@H](CCC(C)C)N(C)C1=O [Compound 1595] ([NMeA]I[NMehLeu][Aze][NMeCha][Sar][hPhe(3-Cl-4-CF3)]P[Ac5c][NMeV][NMeD]-Piperidide; lactam N-11)	15
CC[C@H](C)[C@@H]1NC(=O)[C@H](CC(C)C)N(C)C(=O)C[C@@H](C)NC(=O)[C@H](C(C)C)N(C)C(=O)C2(CCCC2)NC(=O)[C@@H]2CCCN2C(=O)[C@H](CCc2ccc(C(F)(F)F)c(Cl)c2)NC(=O)CN(C)C(=O)[C@H](Cc2ccccc2)N(C)C(=O)CN(C)C(=O)CN(C)C1=O [Compound 1606] (cyclo([Ac5c][NMeV][d(β3hA)][NMeL]I[Sar][Sar][NMeF][Sar][hPhe(3-Cl-4-CF3)]P))	15
CC[C@H](C)[C@@H]1NC(=O)[C@H](CC(C)C)N(C)C(=O)C[C@@H](C)NC(=O)[C@H](C(C)C)N(C)C(=O)C2(CCCC2)NC(=O)[C@@H]2CCCN2C(=O)[C@H](CCc2ccc(C(F)(F)F)c(Cl)c2)NC(=O)CN(C)C(=O)[C@H](Cc2cccc(C)c2)N(C)C(=O)CN(C)C(=O)CN(C)C1=O [Compound 1547] (cyclo([Ac5c][NMeV][d(β3hA)][NMeL]I[Sar][Sar][NMePhe(3-Me)][Sar][hPhe(3-Cl-4-CF3)]P))	22
CCCC[C@@H]1NC(=O)[C@H](Cc2ccc(Cl)s2)NC(=O)CN(C)C(=O)[C@H](Cc2ccc(Cl)cc2)N(C)C(=O)CN(C)C(=O)CN(C)C(=O)[C@H]([C@@H](C)CC)NC(=O)[C@H](CC(C)C)N(C)C(=O)C[C@@H](C(=O)N2CCCCC2)N(C)C(=O)[C@H](CC(C)C)NC(=O)C(C)(C)N(C)C1=O [Compound 1318] ([NMeL]I[Sar][Sar][NMePhe(4-Cl)][Sar][X31][Nle][NMeAib]L[NMeD]-Piperidide; lactam N-11)	78
CC[C@H](C)[C@@H]1NC(=O)[C@H](CC(C)C)N(C)C(=O)C[C@@H](C(=O)N2CCCCC2)N(C)C(=O)[C@H](C2CCCCC2)N(C)C(=O)C2(CCCC2)NC(=O)[C@@H]2CCCN2C(=O)[C@H](CCc2ccc(C(F)(F)F)c(Cl)c2)NC(=O)CN(C)C(=O)[C@H](CC2CCCCC2)N(C)C(=O)CN(C)C(=O)[C@H](C)N(C)C1=O [Compound 1345] ([NMeL]I[NMeA][Sar][NMeCha][Sar][hPhe(3-Cl-4-CF3)]P[Ac5c][NMeChg][NMeD]-Piperidide; lactam N-11)	40
CC[C@H](C)[C@@H]1NC(=O)[C@H](CC(C)C)N(C)C(=O)C[C@@H](C(=O)N2CCCCC2)N(C)C(=O)[C@H](C2CCCCC2)N(C)C(=O)C2(CCCC2)NC(=O)[C@H](Cc2ccc(C(F)(F)F)nc2)N(C)C(=O)[C@H](CCc2ccc(C(F)(F)F)c(Cl)c2)NC(=O)CN(C)C(=O)[C@H](CC2CCCCC2)N(C)C(=O)[C@@H]2CCN2C(=O)CN(C)C1=O [Compound 6] ([NMeL]I[Sar][Aze][NMeCha][Sar][hPhe(3-Cl-4-CF3)][X12][Ac5c][NMeChg][NMeD]-Piperidide; lactam N-11)	13
CC[C@H](C)[C@@H]1NC(=O)[C@H](CC(C)C)N(C)C(=O)C[C@@H](C(=O)N(C)C)N(C)C(=O)[C@H]([C@@H](C)CC)N(C)C(=O)C2(CCCC2)NC(=O)[C@H](C)N(C)C(=O)[C@H](CCc2ccc(C(F)(F)F)c(Cl)c2)NC(=O)CN(C)C(=O)[C@H](Cc2ccc(C)cc2)N(C)C(=O)[C@@H]2CCN2C(=O)[C@H](C)N(C)C1=O [Compound 378, (3S,6S,9S,13S,16S,22S,25S,31S,34S)-25-[2-[3-chloro-4-(trifluoromethyl)phenyl]ethyl]-9-isobutyl-N,N,3,4,10,14,17,22,23,29,32-undecamethyl-6,16-bis[(1S)-1-methylpropyl]-2,5,8,11,15,18,21,24,27,30,33-undecaoxo-31-(p-tolylmethyl)spiro[1,4,7,10,14,17,20,23,26,29,32-undecazabicyclo[32.2.0]hexatriacontane-19,1′-cyclopentane]-13-carboxamide] ([NMeL]I[NMeA][Aze][NMePhe(4-Me)][Sar][hPhe(3-Cl-4-CF3)][NMeA][Ac5c][NMeI][NMeD]-NMe2; lactam N-11)	0.68
CC[C@H](C)[C@@H]1NC(=O)[C@H](C)N(C)C(=O)C[C@@H](C(=O)N2CCCCC2)N(C)C(=O)[C@H]([C@@H](C)CC)N(C)C(=O)C2(CCCC2)NC(=O)[C@@H](Cc2ccccc2)N(C)C(=O)[C@H](CCc2cc(F)c(C(F)(F)F)c(F)c2)NC(=O)CN(C)C(=O)[C@H](Cc2ccc(C)cc2)N(C)C(=O)[C@@H]2CCN2C(=O)[C@H](C)N(C)C1=O [Compound 1887] ([NMeA]I[NMeA][Aze][NMePhe(4-Me)][Sar][hPhe(3,5-F2-4-CF3)][dNMeF][Ac5c][NMeI][NMeD]-Piperidide; lactam N-11)	180
